Experimental findings from patent EP0563734A1, “9-fluoro-7-oxo-7H-pyrido(1,2,3-de)(1,4)benzoxazine carboxylic acids and esters and their use as antiviral agents” (BAYER AG, priority 1992, dated 1993) are described below.

The experiment has as its system Hepatitis B Virus. Kind of experiment: HBV test system: HBV-DNA content in the supernatant of HBV-DNA-transfected hepatoma cells (HEP G2.2.15), after PEG precipitation, with a non-radioactive HBV genomic DNA probe. It is filed as cell-based. As to conditions: HepG2.2.15, 50%ige Hemmung der HBV-DNA Konzentration im Überstand, read-out: IC₅₀. An excerpt: Der Nachweis wurde in mit Hepatitis B Virus DNA transfizierten Hepatomzellen (HEP G2.2.15) geführt. Die Ergebnisse der unten aufgeführten Beispiele wurden zu dem in der folgenden Literaturangabe [Sells, M.A.; Chen, M.L., Acs, G., Proc. Natl. Acad. Sci. USA S. 1005 - 1009, Vol. 84 (1987] beschriebenen HBV-Testsystem ermittelt: Transfizierte Hepatomzellen (HEP G2.2.15) wurden mit verschiedenen Konzentrationen der jeweiligen Verbindung inkubiert. Durch Behandlung der transfizierten Hepatomzellinie HEP G2.2.15 mit den erfindungsgemäßen Verbindungen konnte die Reduktion der virusspezifischen HBV-DNA im Überstand sowie eine Reduktion des HBsAg Spiegels gezeigt werden. Es wurde weiter gefunden, daß die erfindungsgemäßen Verbindungen zu einer Reduktion der replikativen Intermediate der Hepatitisviren führen. Im Überstand der Zellkulturen wurde nach PEG Fällung der Gehalt an HBV-DNA bestimmt. Dies geschah unter Verwendung einer nicht radioaktiv markierten HBV genomischen DNA Probe [Pauly, P., 1982, Ph. D. Thesis, University of Göttingen, F.R.G.; Köchel et al., 1990, EMBL, Accession-Nr. X 51790]. Gleichzeitig erfolgte der Nachweis der Beeinflussung der HBsAg Bildung mittels eines kommerziell erhältlichen ELISA Tests. Die angegebenen IC₅₀-Werte beziehen sich auf die Substratkonzentrationen, die unter den oben aufgeführten Testbedingungen eine 50%ige Hemmung der HBV-DNA Konzentration im Überstand bewirken. Tabelle A
Gleichzeitig erfolgte die Bestimmung des möglicherweise vorhandenen cytotoxischen Einflusses der erfindungsgemäßen Verbindungen mittels Kristallviolettfärbung bzw. über den Einbau von radioaktiv markiertem Thymidin in die zelluläre DNA.
`CC1=COc2c(N3CCN(C4CC4)CC3)c(F)cc3c(=O)c(C(=O)O)cn1c23` [Beispiel 9, 10-(4-Cyclopropyl-piperazin-1-yl)-9-fluor-3-methyl-7-oxo-7H-pyrido-[1,2,3-de][1,4]benzoxazin-6-carbonsäure]: the IC50 amounted to 100 nM.

As for `CCOC(=O)C1=Cn2cc(C(=O)OCC)c(=O)c3cc(F)c(F)c(c32)O1` [Beispiel I, 9,10-Difluor-2-ethoxycarbonyl-7-oxo-7H-pyrido[1,2,3-de][1,4]benzoxazin-6-carbonsäureethylester], the IC50 stood at 500 nM.

As to `CCOC(=O)c1cn2c3c(c(F)c(F)cc3c1=O)OC(C(C)(C)CCCOc1ccccc1)=C2` [Beispiel VIII, 9,10-Difluor-2-(2-methyl-5-phenoxy-2-pentyl)-7-oxo-7H-pyrido[1,2,3-de][1,4]-benzoxazin-6-carbonsäureethylester], the IC50 worked out at 500 nM.
